For data set [1], the target named is T1, Leucine-rich repeat serine/threonine-protein kinase 2 (Homo sapiens, UniProt Q5S007). Put plainly: Inhibition of full length LRRK2 (unknown origin) expressed in HEK293 cells assessed as reduction in S935 phosphorylation incubated for 90 mins by ELISA method. The format is cell-based. For orientation: ELISA stands for enzyme-linked immunosorbent assay.
For data set [2], the target named is T1, Leucine-rich repeat serine/threonine-protein kinase 2. The data set is described as follows: Inhibition of LRRK2 in human PBMCs by ActivX KiNativ method.
Data set [3] has as its target T2, Serine/threonine-protein kinase 3 (Homo sapiens, UniProt Q13188).
T2 sequence (Q13188 whole entry): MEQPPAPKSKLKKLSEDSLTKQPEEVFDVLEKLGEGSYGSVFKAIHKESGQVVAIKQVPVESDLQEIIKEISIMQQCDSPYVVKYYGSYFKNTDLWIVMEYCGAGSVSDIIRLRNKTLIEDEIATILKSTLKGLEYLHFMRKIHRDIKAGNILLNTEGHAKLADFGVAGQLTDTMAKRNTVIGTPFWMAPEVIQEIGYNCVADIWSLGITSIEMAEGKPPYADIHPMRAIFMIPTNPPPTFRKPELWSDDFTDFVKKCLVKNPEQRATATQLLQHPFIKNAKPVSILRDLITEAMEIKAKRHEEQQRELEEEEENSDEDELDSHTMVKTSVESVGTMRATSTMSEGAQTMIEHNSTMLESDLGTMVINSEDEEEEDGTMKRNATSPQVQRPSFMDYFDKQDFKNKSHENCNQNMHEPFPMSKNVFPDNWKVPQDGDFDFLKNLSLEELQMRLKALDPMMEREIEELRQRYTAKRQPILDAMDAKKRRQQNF
The data set is described as follows: Inhibition of human recombinant MST2 using Ser/Thr peptide 7 substrate after 45 mins by Z-Lyte assay.

Data set [4] is described as follows: Oral bioavailability in rat at 5 mg/kg. The format is ADME, organism-based. As to conditions: in vivo.
Data set [5] can be described thus: Tmax in dog at 5 mg/kg, po. The data set is classed as ADME, organism-based, Canis lupus familiaris. Set-up: dose 5 mg/kg, route oral. The conditions noted are these: in vivo.
Data set [6] can be described thus: AUC in non-human primate at 5 mg/kg, po. The format is ADME, organism-based. Set-up: dose 5 mg/kg, route oral. The conditions noted are these: monkey, plasma.
A further data set relates to Rattus norvegicus. The data set is described as follows: fCmax in Wistar Han rat at 20 mg/kg, po bid for 14 days. Set-up: dose 20 mg/kg, route oral. The format is ADME, organism-based. The conditions noted are these: in vivo, 336 h.
Data set [7] deals with Tyrosine-protein kinase JAK1 (Homo sapiens, UniProt P23458). The data set is described as follows: Inhibition of JAK1 (JH1 domain-catalytic) (unknown origin) at 1 uM.

Structures are written as SMILES. The source made the active and inactive calls. The calls are words filed in the database; no cut-off is given here.

T1 sequence (Q5S007 whole entry): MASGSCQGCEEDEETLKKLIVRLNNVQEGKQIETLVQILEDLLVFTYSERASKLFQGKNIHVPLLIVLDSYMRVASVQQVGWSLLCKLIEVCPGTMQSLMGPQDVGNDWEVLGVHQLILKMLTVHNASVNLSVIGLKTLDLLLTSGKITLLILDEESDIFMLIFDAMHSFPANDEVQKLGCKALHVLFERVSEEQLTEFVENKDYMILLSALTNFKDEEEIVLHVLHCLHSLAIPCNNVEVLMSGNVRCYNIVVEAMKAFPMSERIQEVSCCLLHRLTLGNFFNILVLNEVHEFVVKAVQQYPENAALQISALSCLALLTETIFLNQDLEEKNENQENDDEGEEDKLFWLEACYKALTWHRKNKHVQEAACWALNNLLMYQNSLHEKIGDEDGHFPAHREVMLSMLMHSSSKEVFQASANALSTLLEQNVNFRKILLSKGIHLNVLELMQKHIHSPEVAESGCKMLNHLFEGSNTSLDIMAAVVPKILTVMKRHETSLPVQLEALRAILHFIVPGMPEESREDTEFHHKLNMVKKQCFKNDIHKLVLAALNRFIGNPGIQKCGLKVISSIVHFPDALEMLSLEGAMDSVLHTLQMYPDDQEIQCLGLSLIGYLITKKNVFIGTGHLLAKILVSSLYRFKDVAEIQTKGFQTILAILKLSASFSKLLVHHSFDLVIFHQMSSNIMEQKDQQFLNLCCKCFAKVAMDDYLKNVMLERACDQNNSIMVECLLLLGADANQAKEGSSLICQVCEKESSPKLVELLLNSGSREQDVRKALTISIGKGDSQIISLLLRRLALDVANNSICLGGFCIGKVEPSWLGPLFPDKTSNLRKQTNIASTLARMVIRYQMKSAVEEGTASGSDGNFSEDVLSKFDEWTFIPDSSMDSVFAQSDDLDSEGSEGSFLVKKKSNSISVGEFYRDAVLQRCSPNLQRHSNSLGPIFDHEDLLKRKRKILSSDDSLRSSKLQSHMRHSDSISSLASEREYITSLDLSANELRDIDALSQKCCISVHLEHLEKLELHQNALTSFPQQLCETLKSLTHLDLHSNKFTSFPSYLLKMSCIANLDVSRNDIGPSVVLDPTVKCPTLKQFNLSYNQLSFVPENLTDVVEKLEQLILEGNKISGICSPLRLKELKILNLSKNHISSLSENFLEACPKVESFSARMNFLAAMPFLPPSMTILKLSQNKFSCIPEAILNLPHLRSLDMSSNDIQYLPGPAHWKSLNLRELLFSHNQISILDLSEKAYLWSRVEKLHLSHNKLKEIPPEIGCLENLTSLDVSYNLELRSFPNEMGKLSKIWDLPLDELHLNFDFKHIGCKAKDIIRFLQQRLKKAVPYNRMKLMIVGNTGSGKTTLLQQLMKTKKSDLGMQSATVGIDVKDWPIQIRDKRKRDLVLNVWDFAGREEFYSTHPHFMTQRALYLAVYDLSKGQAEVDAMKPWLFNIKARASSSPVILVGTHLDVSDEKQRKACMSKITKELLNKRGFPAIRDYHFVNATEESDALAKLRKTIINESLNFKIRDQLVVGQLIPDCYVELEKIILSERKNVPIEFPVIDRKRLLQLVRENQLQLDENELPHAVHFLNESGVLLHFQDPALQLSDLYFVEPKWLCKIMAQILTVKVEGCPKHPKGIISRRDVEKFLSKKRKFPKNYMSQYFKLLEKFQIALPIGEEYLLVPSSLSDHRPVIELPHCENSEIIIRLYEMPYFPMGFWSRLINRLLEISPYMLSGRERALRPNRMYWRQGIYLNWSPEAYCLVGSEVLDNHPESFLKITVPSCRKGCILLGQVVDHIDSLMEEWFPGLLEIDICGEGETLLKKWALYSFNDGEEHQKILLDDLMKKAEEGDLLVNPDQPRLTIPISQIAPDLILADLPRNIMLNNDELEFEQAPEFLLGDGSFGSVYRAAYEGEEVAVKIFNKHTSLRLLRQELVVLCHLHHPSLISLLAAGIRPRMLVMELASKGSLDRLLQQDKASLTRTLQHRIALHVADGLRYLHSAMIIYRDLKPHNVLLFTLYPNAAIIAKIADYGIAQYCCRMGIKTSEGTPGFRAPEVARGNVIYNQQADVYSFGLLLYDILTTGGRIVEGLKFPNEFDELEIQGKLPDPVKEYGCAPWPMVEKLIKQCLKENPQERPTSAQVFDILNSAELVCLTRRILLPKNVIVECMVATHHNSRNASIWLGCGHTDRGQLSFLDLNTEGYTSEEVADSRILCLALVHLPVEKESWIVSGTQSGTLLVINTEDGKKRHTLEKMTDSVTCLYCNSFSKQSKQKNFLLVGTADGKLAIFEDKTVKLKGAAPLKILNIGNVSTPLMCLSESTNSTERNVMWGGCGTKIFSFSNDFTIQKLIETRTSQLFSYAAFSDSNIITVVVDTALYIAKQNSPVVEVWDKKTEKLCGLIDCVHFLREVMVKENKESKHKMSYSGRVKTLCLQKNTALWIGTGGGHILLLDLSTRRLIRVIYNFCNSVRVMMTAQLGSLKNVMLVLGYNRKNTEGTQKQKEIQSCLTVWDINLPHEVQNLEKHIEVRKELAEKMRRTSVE
Sequence of Tyrosine-protein kinase JAK1 (P23458 whole entry, the tested form may be a part): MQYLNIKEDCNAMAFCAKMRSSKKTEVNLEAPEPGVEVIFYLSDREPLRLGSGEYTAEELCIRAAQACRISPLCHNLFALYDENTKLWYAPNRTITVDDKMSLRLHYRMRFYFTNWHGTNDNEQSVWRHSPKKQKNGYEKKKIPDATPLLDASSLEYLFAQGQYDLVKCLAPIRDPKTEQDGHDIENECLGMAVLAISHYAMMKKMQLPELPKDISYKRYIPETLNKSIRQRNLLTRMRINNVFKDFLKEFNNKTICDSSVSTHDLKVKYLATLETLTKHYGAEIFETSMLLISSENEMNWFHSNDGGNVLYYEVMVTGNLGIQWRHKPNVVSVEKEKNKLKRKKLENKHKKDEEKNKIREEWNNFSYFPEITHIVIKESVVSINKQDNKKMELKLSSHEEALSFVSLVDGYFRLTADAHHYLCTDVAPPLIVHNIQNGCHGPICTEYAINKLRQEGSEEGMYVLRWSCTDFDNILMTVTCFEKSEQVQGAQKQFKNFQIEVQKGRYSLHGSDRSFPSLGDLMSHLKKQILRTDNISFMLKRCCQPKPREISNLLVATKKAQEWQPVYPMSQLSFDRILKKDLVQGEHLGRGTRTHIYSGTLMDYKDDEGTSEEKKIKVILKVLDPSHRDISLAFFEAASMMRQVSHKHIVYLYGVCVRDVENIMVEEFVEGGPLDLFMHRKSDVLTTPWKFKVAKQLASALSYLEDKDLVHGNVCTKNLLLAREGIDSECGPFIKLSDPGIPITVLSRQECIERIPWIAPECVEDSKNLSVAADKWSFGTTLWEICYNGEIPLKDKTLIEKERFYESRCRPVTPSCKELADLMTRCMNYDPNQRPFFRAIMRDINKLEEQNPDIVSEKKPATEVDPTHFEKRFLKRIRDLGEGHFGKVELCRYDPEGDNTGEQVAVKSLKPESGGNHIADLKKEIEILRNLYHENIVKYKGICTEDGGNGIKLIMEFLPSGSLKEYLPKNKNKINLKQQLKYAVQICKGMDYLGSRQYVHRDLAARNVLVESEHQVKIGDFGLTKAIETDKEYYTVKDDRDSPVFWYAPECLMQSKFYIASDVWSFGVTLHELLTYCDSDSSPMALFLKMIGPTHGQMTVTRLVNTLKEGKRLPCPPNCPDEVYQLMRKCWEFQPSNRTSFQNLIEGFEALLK

A word on the IC50: it is the concentration that gives 50% inhibition. A word on the bioavailability: it is the share of a dose that reaches the circulation, judged against a reference dose that is usually intravenous. Higher therefore signals much systemic uptake. As usually defined, the Tmax is the time at which the peak concentration occurs. For orientation: AUC means concentration integrated over time. Read a low AUC as low exposure. Turning to `N#Cc1cccc(-c2c[nH]c3ncnc(N4CCOCC4)c23)c1`, the IC50 was 25 nM in data set [1], 15 nM in data set [2] and 22 nM in data set [3]. Further, in data set [4], the bioavailability is 41%. In data set [5], the time to peak (Tmax) is 22.8 min. For the same molecule, in data set [6], the AUC amounted to 78 ng·h/mL. Also, the fCmax with Rattus norvegicus came out at 380 nM. Besides, the inhibition entry in data set [7] was “inactive”.

These data come from ChEMBL document CHEMBL3393009 (J Med Chem, 2015).
